Structure (SMILES)	melting point [°C]
COC(=O)C1=C(C)Nc2nccn2C1c1cccc(C2(C)OCCO2)c1 (configuration not stated)	199 to 201
C#CCN1CCN(C(C)=O)CC1	63 to 65
CCOC(=O)c1cnn(-c2ccc(CBr)cc2)n1	148 to 149
CCOC(=O)N1CCN(c2c(F)cc([N+](=O)[O-])c(F)c2COC)CC1	85 to 86
CCOC(=O)c1cn2cnc3ccccc3c2c1C(=O)OCC	125 to 126
CC(C(=O)O)c1ccc2c(c1)CCc1ccccc1C2=O (configuration not stated)	122
O=C(c1ccc([N+](=O)[O-])cc1)N1CCCCc2sc(Cl)c(Cl)c21	140 to 142
Cc1cc(=O)n2cccc(SC(=O)N(C)C)c2n1	165 to 167
CSc1ccc(N2CC=C(c3cccc(C)c3)CC2)nn1	130
CC(C)Nc1c(-c2cc(F)cc(F)c2F)c(Cl)nc2ncnn12	151
COc1ccc(S(=O)(=O)c2ncccn2)cc1	72
OC(CCc1cccc(Br)c1)c1cnc2sc3c(n12)CCCCC3 (configuration not stated)	137 to 141
CC(C)CCC1(c2ccccc2)CC(O)=C(Sc2ccccc2)C(=O)O1 (configuration not stated)	154 to 155
COc1cc(C(C)C)c2c(c1)S(=O)(=O)N(COc1cc(C(F)(F)F)nn1-c1ncccn1)C2=O	133 to 134
C1=Nc2cccc(-c3ccoc3)c2C12COc1cc3c(cc12)OCO3 (configuration not stated)	270 to 272
CN(C)C(=O)Cn1nnnc1S	204 to 205
O=C(NCCCl)Sc1ncnc2nc[nH]c12	221 to 223
CC(=O)OCCCCc1c(C)[nH]c(C(=O)OC(C)(C)C)c1C	62
CCCCCCCCCCOc1ccc(-c2ccc(C#CCCC(C)OC)cc2)cc1 (configuration not stated)	97 to 99
CSc1ccc(-c2n[nH]c(=O)cc2-c2ccccc2)cc1	186
O=Cc1c2ccsc2cc2c1ccc1ccccc12	178 to 180
Cc1cc2nc(N3CCC(=S)CC3)nc(N)c2cc1C	187 to 188
Cn1cc(C2=C(c3cn(C)c4ccc(N)cc34)C(=O)NC2=O)c2ccccc21	254 to 256

Structure (SMILES)	melting point [°C]
COc1cc(N)c(Cl)cc1C(=O)NCC1CNCCO1 (configuration not stated)	161 to 162
O=C1C=c2c(c3c4ccccc4[nH]c3c3[nH]c4ccccc4c23)=N1	> 320
CNc1nc(C2C(=O)Nc3ccc(C(F)(F)F)cc32)c2cn(C3CCCC3)nc2n1 (configuration not stated)	> 300
CCOC(=O)C1=C(C)NC(C#N)=C(C(=O)OCC)C1c1ccccc1C(=O)OC (configuration not stated)	126 to 127
CC(NC(=O)C(CS)C1CCc2ccccc21)C(=O)O (configuration not stated)	121
CN1C(=O)C(NC(=O)NC(C)(C)C)N=C(c2ccccc2)c2ccccc21 (configuration not stated)	281 to 282
Cn1c(C(F)(F)F)cc(=O)n(-c2cc(OC3CCCC3)c(Cl)cc2F)c1=O	118 to 120
CCC1(C)COP(=O)(Cc2ccc(N)cc2)OC1 (configuration not stated)	130 to 131
CCCn1cccc1C(N)=S	88 to 91
COC(C)c1cc2c(=O)n(NS(C)(=O)=O)c(=O)[nH]c2cc1C(F)(F)F (configuration not stated)	233 to 236
COc1cc(C(=O)CBr)cc(C#N)c1OC	138 to 141
CN1C(=O)C(CCCCBr)Sc2ccccc21 (configuration not stated)	116
COc1ccc2[nH]c3c(c2c1)C1C(=O)NC(=O)C1C(C(=O)OCc1ccccc1)C3 (configuration not stated)	179 to 181
Nc1cccc(S(=O)(=O)NC2(CO)CCCC2)c1	130 to 132
Cc1ccc(S(=O)(=O)OC[C@H]2CN(c3cccc(F)c3)C(=O)O2)cc1	114 to 115
COc1cc2c(cc1OC)C(c1ccc([N+](=O)[O-])cc1)=NN(c1ccccn1)[C@H](C)C2	210 to 214
Cc1c(CC(=O)N(C)C)oc2ccc(F)cc12	88 to 90
N#CCC(=O)c1cc(F)c(Cl)cc1Cl	98 to 99
CC(=O)Oc1ccc(C(=O)N2CCNC2=O)cc1OC(C)=O	154 to 156
Cc1ccc2c(n1)sc1c(O)cnnc12	> 300
COC(CC(=O)O)C(O)=Nc1cc(Cl)cc(Cl)c1 (configuration not stated)	125 to 126
O=C1CCc2cc3[nH]c(-c4ccncc4)nc3cc2N1	285 to 288
CC(C)CCC(=O)N1CCN(C(=O)OC(C)(C)C)CC1	88 to 90.2

Structure (SMILES)	melting point [°C]
COc1cc(Nc2c(C#N)cnc3cc(-c4ccc(CO)cc4)sc23)c(Cl)cc1Cl	239 to 240
COC(=O)c1cn(Cc2ccccc2F)cn1	87 to 89
O=C(O)CCCOc1ccc(C23CC4CC(CC(C4)C2)C3)cc1	170 to 172
CCC1CCCCN1C(=O)C=Cc1c(-c2cccc(N)c2)nn2ccccc12 (configuration not stated)	150 to 151
Clc1ccc(N2CCN(Cc3cn4cc(Cl)ccc4n3)CC2)c(Cl)c1	136 to 138
O=C(c1ccco1)C1C(=O)N(c2nccs2)c2ccccc21 (configuration not stated)	156 to 157
O=C(Nc1ccc(F)nc1)OCC(Cl)(Cl)Cl	114 to 115
CCCCc1c(Cl)nc(N)nc1-c1cc2ccccc2o1	195 to 196
O=C(O)COc1ccc2c(-c3ccco3)noc2c1Cl	230 to 233
CCCCCCCCCCCCNC(=O)c1ccccc1N	73 to 75
C=Cc1c(C(=O)O)cccc1[N+](=O)[O-]	166 to 167
Cc1cc(C)c2c(-c3cc(C(C)(C)C)c(O)c(C(C)(C)C)c3)n[nH]c2n1	257 to 258
c1cnc2c(c1)N(c1ccc3[nH]cc(C4CCNCC4)c3c1)CN2	260 to 268
C=CCOc1ccccc1/C=C\C(=O)O	80 to 82
NS(=O)(=O)c1ccccc1-c1ccno1	132 to 135
CC(N1CCC(n2c(=O)[nH]c3ccccc32)CC1)N1Sc2ccccc2C1C(N)=O (configuration not stated)	174 to 177
CC1(Cl)C(=O)N(c2ccc(Cl)c(Cl)c2)N=C1C#N (configuration not stated)	68 to 69
Cc1nc(N2CCN(Cc3ccc(F)cc3)C2=O)sc1C(=O)NCCN1CCCC1	183 to 184
CCN(CC)C(=O)Cc1cccc(Oc2ccccc2F)c1N	159 to 160
CN(C)c1nc(N(C)C)c2ccccc2n1	74 to 76
CCCc1nc2c(N)nc3ccccc3c2n1CCCCCC(=O)OCC	112 to 113

More lines, now with the values ahead:

melting point [°C]	Structure (SMILES)
48 to 50	COC(=O)CCOc1ccc(C=O)cc1
199 to 201	N#Cc1ccc(COc2cc(O)cc(C(=O)Nc3ccc(C#N)cc3)c2)cc1
154 to 156	O=C(NCc1ccccc1)c1ccnc(N2CCN(Cc3ccncc3)C2=O)c1
79	CC(=O)Nc1ccc(C(=O)NC(=O)N2CCC(Oc3ccc(Cl)cc3)CC2)cc1
187 to 189	CCOC(=O)C1Cc2ccc(NC(=O)OCc3ccccc3)cc2NC1=O (configuration not stated)
131 to 133	O=C1C(=O)c2ccccc2C2=C1SCC1(CCN(CCOc3ccc(Cl)cc3)CC1)O2
218 to 220	CC1(C)CCC(C)(C)c2cc(S(=O)(=O)c3ccc(C(=O)O)cc3)ccc21
74 to 76	CC(C)(C#N)c1cc(Cn2cncn2)cc(-c2ccc(OS(N)(=O)=O)cc2)c1
53 to 56	O=C1C(=Cc2ccccc2)CCc2cc(OCCc3c[nH]cn3)ccc21
218 to 220	CC(=O)NC[C@H]1CN(c2ccc(C(=O)c3cnc4ccccn34)cc2)C(=O)O1
280 to 283	CCCc1c(Oc2ccc(C(=O)O)cc2C(=O)O)ccc(C(C)=O)c1O
184 to 186	O=C(Nc1cc(OCCCO/N=C/c2cc(C(F)(F)F)cc(C(F)(F)F)c2)ccc1C(=O)O)c1ccc(OC(F)(F)F)cc1
139 to 140	CS(=O)(=O)N(Cc1cccnc1)c1ccc(Oc2ccccc2)cc1
113 to 116	O=C(Nc1ccc(-n2nc(C(F)(F)F)cc2C(F)(F)F)cc1)C1CCCO1 (configuration not stated)
113 to 116	CC(=O)c1ccc(NS(C)(=O)=O)c(Oc2ccccc2S(C)=O)c1 (configuration not stated)
134 to 136	COc1ccc(CN(CC(=O)NO)S(=O)(=O)c2ccc(OC)cc2)cc1
127 to 129	O=C(O)CCCCCOc1nc(-c2ccccc2)cc(-c2ccccc2)n1
158 to 160	Fc1ccc(CNc2nc3ccccc3n2-c2ccc(F)c(F)c2)cc1F

melting point [°C]	Structure (SMILES)
120 to 122	OCc1cc2c3ccccc3n(Cc3ccccc3)c2cn1
180 to 182	CCn1c2ccccc2c2cc(C(C#N)=C(C#N)c3cc(C(F)(F)F)cc(C(F)(F)F)c3)ccc21
210	COc1ccc(-c2cc(-c3ccc(F)cc3)ccc2C(=O)O)cc1OC
175 to 177	COc1cc2ncnc(N3CCc4ccc(-c5ccccc5)cc43)c2cc1OC
191 to 194	CCOc1cc2ncc(C#N)c(Nc3cccc(C(C)=O)c3)c2cc1OCC
99 to 120	N=C(N)NC(=O)Cn1c(Cc2cccs2)ccc1-c1ccccc1
156 to 157	O=C1c2ccc(Cl)cc2C(=O)N1c1ccc(Cl)cc1OC(F)(F)F
234 to 235	CCCCCC(=O)Nc1ccc2scc(Cc3ccc(C(=O)O)cc3OC)c2c1
129 to 130	O=C(NCc1cc(C(F)(F)F)cc(C(F)(F)F)c1)c1oc(=O)c2ncccc2c1-c1ccccc1
100 to 101	CS(=O)(=O)c1ccc(-c2cnn(-c3ccc(F)c(F)c3)c(=O)c2OCCC2CCCC2)cc1
78 to 84	Oc1ccc2c(c1)OCC(c1ccc(F)cc1)C2c1ccc(OCCCN2CCCCC2)cc1 (configuration not stated)
192	Cc1ccccc1-c1nccc2c(CC(=O)O)cccc12
117 to 121	COc1ccc(-c2cc(=Nc3c(C)cc(C)cc3C)n(C)c(N3CCN(C(=O)c4ccc(F)cc4)CC3)n2)cc1OC
149 to 150	COc1ccc(Cc2cnc(NCCCCc3ncc(Br)cc3C)[nH]c2=O)cc1
257	NS(=O)(=O)c1cccc(NC(=O)c2cnn3c(C(F)(F)F)cc(-c4ccc(OC(F)(F)F)cc4)nc23)c1
84	CC(C)(C)OC(=O)CN(Cc1cc(C(F)(F)F)cc(C(F)(F)F)c1)Cc1cc2ccccc2nc1Cl
85 to 90	CCCCCCOc1cccc(C[C@H](NC(=O)c2coc(NS(C)(=O)=O)n2)[C@H](O)CNCc2cccc(CC)c2)c1

Reference: a melting point compilation (Tetko et al.; mined from patent text by program, amines drawn as free bases though some values may be those of a salt)
